These are literature values, as cited in US20240165107A1 (Cipla Limited, priority 2021, published 2024).

Each structure is given as a SMILES string. Where two headings read alike, the source gives them in different places.

For series [1] the following is noted: rats; immediate release cariprazine capsules.
For series [2] the following is noted: dogs; immediate release cariprazine capsules.
The target in series [3] is T1, alA- adrenergic receptors (Homo sapiens, UniProt P35348).
T1 sequence (P35348 1-466): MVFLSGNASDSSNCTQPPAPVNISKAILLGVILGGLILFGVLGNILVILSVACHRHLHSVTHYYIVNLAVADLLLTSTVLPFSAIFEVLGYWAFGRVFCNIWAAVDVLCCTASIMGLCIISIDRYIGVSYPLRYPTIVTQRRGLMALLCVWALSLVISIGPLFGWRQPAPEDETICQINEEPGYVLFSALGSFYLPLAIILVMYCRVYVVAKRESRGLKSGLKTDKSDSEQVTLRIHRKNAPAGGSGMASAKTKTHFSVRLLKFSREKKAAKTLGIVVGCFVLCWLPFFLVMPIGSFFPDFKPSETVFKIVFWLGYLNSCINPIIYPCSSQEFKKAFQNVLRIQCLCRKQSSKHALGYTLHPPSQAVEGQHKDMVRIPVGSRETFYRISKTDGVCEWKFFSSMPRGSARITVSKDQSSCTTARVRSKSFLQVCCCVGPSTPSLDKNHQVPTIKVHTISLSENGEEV

Series [4] has as its system cholinergic muscarinic receptors.
Series [5] addresses 5-HT2B receptors (Homo sapiens, UniProt P41595). The following applies: antagonist.
Series [6] addresses T2, serotonin 5-HT2C receptors (Homo sapiens, UniProt P28335).
T2 sequence (P28335 33-458): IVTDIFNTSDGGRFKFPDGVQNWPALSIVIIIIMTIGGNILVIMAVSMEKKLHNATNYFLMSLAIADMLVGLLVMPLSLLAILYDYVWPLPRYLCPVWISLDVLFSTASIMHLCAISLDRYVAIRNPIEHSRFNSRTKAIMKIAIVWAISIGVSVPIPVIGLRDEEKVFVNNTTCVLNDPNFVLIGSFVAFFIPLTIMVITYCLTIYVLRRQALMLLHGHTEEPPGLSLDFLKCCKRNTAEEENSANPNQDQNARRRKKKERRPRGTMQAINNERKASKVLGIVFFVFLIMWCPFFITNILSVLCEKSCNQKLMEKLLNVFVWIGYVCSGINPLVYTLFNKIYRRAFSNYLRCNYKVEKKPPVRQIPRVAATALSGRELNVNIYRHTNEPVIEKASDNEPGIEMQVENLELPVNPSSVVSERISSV

The target in series [7] is 5-HT2A receptors (Homo sapiens, UniProt P28223). The following applies: antagonist.
5-HT2A receptors, sequence (P28223 whole entry): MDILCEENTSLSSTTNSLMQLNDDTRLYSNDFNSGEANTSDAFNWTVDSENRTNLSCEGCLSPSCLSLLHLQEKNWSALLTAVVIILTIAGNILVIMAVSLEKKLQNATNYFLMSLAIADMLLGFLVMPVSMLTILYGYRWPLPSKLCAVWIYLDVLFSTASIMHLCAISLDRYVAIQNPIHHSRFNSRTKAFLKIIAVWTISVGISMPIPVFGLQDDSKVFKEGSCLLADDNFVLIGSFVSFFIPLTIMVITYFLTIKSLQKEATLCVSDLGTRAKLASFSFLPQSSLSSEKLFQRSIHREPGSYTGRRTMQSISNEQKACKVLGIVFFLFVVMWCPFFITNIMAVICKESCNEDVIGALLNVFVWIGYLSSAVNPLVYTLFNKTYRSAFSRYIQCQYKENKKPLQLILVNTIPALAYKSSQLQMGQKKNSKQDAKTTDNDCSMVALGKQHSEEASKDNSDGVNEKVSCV

5-HT2B receptors, sequence (P41595 whole entry): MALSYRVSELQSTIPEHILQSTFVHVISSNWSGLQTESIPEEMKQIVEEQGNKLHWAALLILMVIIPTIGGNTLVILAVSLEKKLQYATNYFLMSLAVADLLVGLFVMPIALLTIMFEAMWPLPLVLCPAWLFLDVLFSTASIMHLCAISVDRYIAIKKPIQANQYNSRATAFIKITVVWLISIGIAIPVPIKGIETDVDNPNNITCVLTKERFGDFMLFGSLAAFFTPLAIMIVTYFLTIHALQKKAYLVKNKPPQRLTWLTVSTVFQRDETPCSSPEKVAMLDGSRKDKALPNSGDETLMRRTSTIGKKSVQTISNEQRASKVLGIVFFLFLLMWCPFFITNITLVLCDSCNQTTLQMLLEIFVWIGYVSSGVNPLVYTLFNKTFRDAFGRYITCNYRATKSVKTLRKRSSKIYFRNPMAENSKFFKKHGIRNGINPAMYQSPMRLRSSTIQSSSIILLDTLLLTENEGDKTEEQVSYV

`CN(C)C(=O)N[C@H]1CC[C@H](CCN2CCN(c3cccc(Cl)c3Cl)CC2)CC1` [Cariprazine, trans-N-{4-[2-[4-(2,3-dichlorophenyl)piperazine-1-yl]ethyl]cyclohexyl}-N′,N′-dimethylurea]: the oral absolute bioavailability is 52-63% in series [1] and 64-80% in series [2]. Moreover, the binding affinity entry is on record as “lower binding affinity” in series [3], “high” in series [5], “lower binding affinity” in series [6] and “moderate” in series [7]. For the same compound, the affinity entry in series [4] was “no appreciable affinity”.
